Results on seven molecules are retold here after patent US10722529B2, “Modulation of NAD+ metabolic pathways for treatment of disease” (Temple University—Of The Commonwealth System of Higher …, priority 2015, dated 2020).

“Also recorded” adds a separate entry of the source.

Assay [1] has as its system IDO. As to conditions: cited from earlier work.
The test system of assay [2] is HIV. As to conditions: in vitro and in patients; cited from earlier work.
Assay [3] has as its system human monocytes. Description: CD16 expression in human monocytes isolated from donor PBMCs in the presence of M-CSF. Type of assay: cell-based. As to conditions: M-CSF treatment, in vitro. The text has this:
FIG. 12 depicts the flow cytometry gating strategy used to separate two CD16 positive monocyte subsets.
FIG. 14 depicts the mean fluorescent intensity for CD16 expression in human monocytes isolated from donor PBMCs in the presence of M-CSF treatment.

For assay [4], the system named is kynurenine to tryptophan ratio. Briefly: Plasma kynurenine to tryptophan ratio (KTR) in NR-treated rhesus macaques. Type of assay: in vivo, rhesus macaque. On the procedure: FIG. 8A depicts the KTR in SIV infected animals treated with different concentrations of NR. FIG. 8B depicts the KTR in uninfected animals treated with different concentrations of NR.
(§1) As described herein, an increase in the kynurenine to tryptophan ratios in the SIV macaque model was identified, with a positive correlation with viral load and soluble CD163 in plasma. […] In an effort to modulate the kynurenine pathway, and decrease tryptophan metabolism, a dose escalation study was performed with the NAD salvage pathway precursor, nicotinamide riboside (NR), in SIV infected macaques. […] This monocyte subset has been implicated in the pathogenesis of HIV infection, HAND, as well as other HIV associated comorbidities. […] The regulation of the kynurenine pathway appears to be complex, yet an attractive target for HIV therapeutics. Understanding the mechanism by which HIV modulates the kynurenine pathway could provide new therapeutic targets for the treatment of HIV and HAND.
Experiments were then conducted to examine if kynurenine to tryptophan ratios of SIV infected macaques correlate with sCD163 plasma level, ATP plasma level, and viral load. ELISA kits were used according to the manufacturer's directions to determine plasma concentrations of sCD163, kynurenine and tryptophan. Plasma ATP levels were analyzed using ATPLite assay. It was determined that kynurenine to tryptophan ratios increased in relations to higher viral loads (r=0.4774; p=0.0028) (FIG. 5A). Further, a positive correlation between kynurenine to tryptophan ratio and sCD163 plasma concentration was observed (r=0.473; p=0.0027) (FIG. 5B).

Assay [5] concerns CD4/CD8 ratio. Briefly: CD4/CD8 ratio in NR dose escalation study in SIV infected macaques. The assay is classed as in vivo, rhesus macaque. The settings on record: SIV infected animals; highest dose (400 mg/kg). The method, then: as §1
Assay [6] concerns macrophage colony-stimulating factor (M-CSF). Description: M-CSF in NR treated macaques. Type of assay: in vivo, rhesus macaque. From the text:
FIG. 11 depicts experimental results showing that macrophage colony-stimulating factor (M-CSF) is reduced in NR treated macaques.

Assay [7] deals with CD14+/CD16+ monocytes. Description: Flow cytometry of CD14/CD16 on PBMC monocytes of NR-treated rhesus macaques. The assay is classed as in vivo, rhesus macaque. As to conditions: for CD16 expression on CD14+ monocytes (FACS dot plots): five seronegative and four seropositive macaques, before vs after NR. On the procedure:
PBMC from five seronegative and four seropositive rhesus macaques were analyzed after treatment with increasing concentrations of nicotinamide riboside (NR) over a 5-week period.
PBMC from five seronegative and four seropositive rhesus macaques were stained with antibodies to CD14 and CD16 and analyzed by flow cytometry after treatment with increasing concentrations of NR over a 5-week period. The mean fluorescence intensity (MFI) and percent frequency (% Freq) of CD16 was determined for each animal. […] One-way ANOVA was performed *P≤0.05; **P≤0.01; ***P≤0.001; n=9.
Experiments were then conducted to examine whether nicotinamide riboside treatment effects CD16 expression on CD14+ monocytes. PBMC from five seronegative and four seropositive rhesus macaques were analyzed after treatment with increasing concentrations of nicotinamide riboside (NR) over a 5-week period.
Experiments were then conducted to examine the effects of NR treatment on CD14 and CD16 expression. PBMC from five seronegative and four seropositive rhesus macaques were stained with antibodies to CD14 and CD16 and analyzed by flow cytometry after treatment with increasing concentrations of NR over a 5-week period. The mean fluorescence intensity (MFI) and percent frequency (% Freq) of CD16 was determined for each animal.
For orientation: In flow cytometry, cells or beads pass a laser one at a time.

In assay [8] the test system is NAD+. Description: NAD+ concentration in PBMC of rhesus macaques treated with increasing NR over 5 weeks. The assay is classed as in vivo, rhesus macaque. As to conditions: SIV infected rhesus macaques, increasing concentrations of NR over a 5 week period. The method, then:
Peripheral blood mononuclear cells (PBMC) from five seronegative and four seropositive rhesus macaques were lysed and assayed for NAD+ concentration after treatment with increasing concentrations of nicotinamide riboside (NR) over a 5 week period. […] Paired T test and one way ANOVA was performed *P≤0.05; **P≤0.01 n=9.
Experiments were then conducted to examine the effect of nicotinamide riboside treatment on NAD+ levels in SIV infected animals. Peripheral blood mononuclear cells (PBMC) from five seronegative and four seropositive rhesus macaques were lysed and assayed for NAD+ concentration after treatment with increasing concentrations of nicotinamide riboside (NR) over a 5 week period.

Assay [9] concerns SIV. Description: Viral load in SIV infected macaques treated with NR (latency reversal). The assay is classed as in vivo, rhesus macaque. The text has this: Four SIV infected macaques were followed over time during chronic infection, two treated with combination anti-retroviral therapy (cART), and two non-treated.
Assay [10] relates to intracellular NAD+. As to conditions: at micromolar concentrations; cited from earlier work.
Assay [11] addresses CD38 (Homo sapiens, UniProt P28907). As to conditions: at micromolar concentrations; cited from earlier work.
Assay [12] has as its system adipose tissue macrophage infiltration. The settings on record: mice; cited from earlier work.
Assay [13] deals with plasma tryptophan. The settings on record: HIV infected subjects, supplementation; cited from earlier work.
The subject of assay [14] is HIV/AIDS. As to conditions: prior to the advent of cART; cited from earlier work.
Where [15] appears, read: listed as nicotinamide riboside.
[16] abbreviates: uninfected and SIV infected macaques, before vs after NR over 5 weeks.

Chain of CD38 (P28907 whole entry, species assumed): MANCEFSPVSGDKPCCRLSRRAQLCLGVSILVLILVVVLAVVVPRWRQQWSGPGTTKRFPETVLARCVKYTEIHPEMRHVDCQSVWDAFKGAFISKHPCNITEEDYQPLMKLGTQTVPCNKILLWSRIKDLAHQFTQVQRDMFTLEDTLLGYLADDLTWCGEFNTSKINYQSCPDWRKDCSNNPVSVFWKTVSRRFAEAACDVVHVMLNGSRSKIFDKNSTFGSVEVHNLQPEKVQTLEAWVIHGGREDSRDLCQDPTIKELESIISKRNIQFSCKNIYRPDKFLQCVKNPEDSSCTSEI

With `Cn1cc(C[C@H](N)C(=O)O)c2ccccc21` [1-methyl tryptophan], in assay [1] (SIV/rhesus macaque model, IDO blockade), the “effect on tryptophan depletion or alterations in the kynurenine pathway” value is listed as “incapable of affecting”. In addition, the “disturbance in K/T over-time” value in assay [1] (infected animals vs controls) was “increased the disturbance in K/T over-time in infected animals but not in controls”.

Turning to `O=C(CCCCCCC(=O)Nc1ccccc1)NO` [vorinostat], the “latency reversal on repeated dosages” value in assay [2] was “diminishing returns over time”.

Turning to `NC(=O)c1ccc[n+]([C@@H]2O[C@H](CO)[C@@H](O)[C@H]2O)c1` [NR, nicotinamide riboside], in assay [3], the “CD16 monocyte subset expression” value is recorded as “inhibits CD16 monocyte expression induced by M-CSF; also recorded: reduces CD16 monocyte subset expression”. For the same molecule, in assay [4] (SIV infected animals, 100 mg/kg dose), the “kynurenine to tryptophan ratio” value was “appeared to increase”. Besides, the “kynurenine to tryptophan ratio (KTR)” value was “decreased; also recorded: decreases KTR” in [4] (SIV infected animals, different concentrations of NR) and “no significant impact” in assay [4] (uninfected (seronegative) animals, relative to pretreatment values). Besides, the CD4/CD8 ratio result in assay [5] is “decrease CD4/CD8 ratio”. In addition, in assay [6], the M-CSF level entry was “reduces M-CSF; also recorded: reduced”. The entries for the “CD16 expression on CD14+ monocytes (FACS dot plots)” value in [7] and in [7] (setting [15]) were “decreased in all animals examined” and “significantly decreases”, respectively. Besides, in assay [7] (setting [16]), the “mean fluorescence intensity (MFI) of CD16 on CD14+/CD16+ monocytes” value is “significantly reduced; also recorded: significantly higher than after treatment; also recorded: significantly decreases”. In addition, in [7] (setting [16]), the “percent frequency of CD14+/CD16+ monocytes (% Freq of CD16)” value was “significantly reduced; also recorded: significantly decreases”. For the same molecule, the “NAD+ concentration in PBMC” value in assay [8] is on record as “significantly increased”; in [8] (setting [15]) it was “increases NAD+ levels”. In addition, in [9] (SIV infected rhesus macaques), the “function as latency reversing agent for SIV infection” value is recorded as “potential for NR to function as a latency reversing agent; also recorded: may function as a latency reversing agent”. Also, the viral load result in [9] (four SIV infected macaques, chronic infection, two on cART, two non-treated, all treated with NR) is recorded as “evidence for viral load increase in all animals”. The “viral load over time” value in [9] (the animal on cART with the lowest viral load) is “increase in viral load and then decrease over time”.

As for `O=c1c(O)c(-c2ccc(O)c(O)c2)oc2cc(O)cc(O)c12` [quercetin], in [10], the “intracellular NAD+” value is listed as “increase intracellular NAD+”. Besides, the “inhibition of CD38 enzyme activity” value in assay [11] is listed as “inhibit CD38 enzyme activity”. Moreover, in [12], the SIRT-1 activity result is recorded as “increased SIRT-1 activity”; the “inflammatory cytokine levels in tissue and sera (TNFα, MCP-1, IL-6)” value is “reduced inflammatory cytokine levels”; the “obesity associated adipose tissue macrophage infiltration” value is listed as “reduce obesity associated adipose tissue macrophage infiltration”.

Take `NC(=O)c1cccnc1` [nicotinamide]: the plasma tryptophan levels entry in [13] is “increases plasma tryptophan levels”.

Consider `O=C(O)c1cccnc1` [niacin], for which the “delay of progression of HIV/AIDS” value in assay [14] is on record as “some benefit in delaying the progression of HIV/AIDS”.

As to `O=c1cc(-c2ccc(O)cc2)oc2cc(O)cc(O)c12` [apigenin], the “intracellular NAD+” value in assay [10] is on record as “increase intracellular NAD+”. Besides, in [11], the “inhibition of CD38 enzyme activity” value was “inhibit CD38 enzyme activity”.
